# Test results: PubChem BioAssay (NCI)
# Where “and” joins values, the source holds several entries; their conditions need not be identical. Identical values can stand only once.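 Growth conditions: 96-well plates. Treatment: test compound, 48 hours, 5 concentrations. Analysis: linear interpolation between bracketing concentrations; unreached endpoints set to highest concentration. Abbreviation: GI50, concentration required for 50% inhibition of growth. TGI denotes the concentration required for complete inhibition of growth.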
# Tests used:
# Test in all cases: NCI anticancer screen, dose series, 48 h
# 786-0 renal = tested on: 786-0 renal
# HCC-2998 colon = tested on: HCC-2998 colon
# MDA-MB-435 = tested on: MDA-MB-435
# PC-3 prostate = tested on: PC-3 prostate
# RPMI-8226 leukemia = tested on: RPMI-8226 leukemia
# SK-MEL-2 melanoma = tested on: SK-MEL-2 melanoma
# SK-MEL-5 melanoma = tested on: SK-MEL-5 melanoma
# SN12C renal = tested on: SN12C renal
# HOP-92 NSCLC = tested on: HOP-92 NSCLC
# OVCAR-4 ovarian = tested on: OVCAR-4 ovarian
SMILES,GI50 (786-0 renal) [µM],TGI (786-0 renal) [µM],GI50 (HCC-2998 colon) [µM],TGI (HCC-2998 colon) [µM],GI50 (MDA-MB-435) [µM],TGI (MDA-MB-435) [µM],GI50 (PC-3 prostate) [µM],TGI (PC-3 prostate) [µM],GI50 (RPMI-8226 leukemia) [nM],TGI (RPMI-8226 leukemia) [µM],GI50 (SK-MEL-2 melanoma) [µM],TGI (SK-MEL-2 melanoma) [µM],GI50 (SK-MEL-5 melanoma) [µM],TGI (SK-MEL-5 melanoma) [µM],GI50 (SN12C renal) [µM],TGI (SN12C renal) [µM],TGI (HOP-92 NSCLC),TGI (OVCAR-4 ovarian) [µM],GI50 (HOP-92 NSCLC) [nM],GI50 (OVCAR-4 ovarian) [µM]
CCN(CC)CCOc1cc2c(C(=O)OC)c(C)oc2cc1C(C)=O,13.1,25.9,15.7,29.3,16.1,33.9,3.97,13.7,2760,7.39,33.3,> 100,6.62,19,1.64,6.54,–,–,–,–
COC(=O)C#Cc1ccc([N+](=O)[O-])cc1,–,7.04,–,4.32,–,5.57,–,13.1,–,1.48,–,7.98,–,6.18,–,3.22,4.11 µM,3.5,–,–
CN(CCC(=O)O)S(=O)(=O)c1ccccc1,–,> 100,–,–,–,> 100,–,> 100,–,> 100,–,> 100,–,> 100,–,> 100,> 100 µM,> 100,–,–
CO[C@H]1CC[C@@]2(C)C(=CC[C@H]3[C@@H]4C[C@H](O)C[C@@]4(C)CC[C@@H]32)C1,11.7,37.7,11.6,27.2,1.26,6.89,3.91,30.3,3680,54.2,2.74,6.83,3.23,13.1,6.61,22,18.1 µM,54.2,1380,8.82
O=C(O)c1cccc(CC(Br)C(=O)O)c1 (centres undefined),–,> 100,–,> 100,–,> 100,–,> 100,–,> 100,–,> 100,–,> 100,–,> 100,> 100 µM,> 100,–,–
CN(C)CC1CCn2c(c(C3=C(c4cn(C)c5ccccc45)C(=O)NC3=O)c3ccccc32)C1 (centres undefined),4.26,8.17,4.65,8.93,3.7,7.49,3.71,8.03,4890,11,3.96,7.82,3.9,7.49,3.89,8.11,6.55 µM,9.3,1780,4.32
Cc1cccc(N=C2c3cc([N+](=O)[O-])ccc3-c3c2cc([N+](=O)[O-])cc3[N+](=O)[O-])c1,2.52,5.65,6.45,18.7,3.49,10.8,5.02,21.6,2730,10.7,7.39,32.1,5.44,17.9,2.14,4.8,7.17 µM,> 100,2470,6.98
COc1ccc2c(c1)Cc1c-2c(NN)nc2ccccc12,40.4,> 100,28.4,> 100,3.8,> 100,19.8,> 100,17600,48.3,33.1,> 100,22,58.3,40.3,> 100,71.6 µM,> 100,22800,31.1
O=C1/C(=C/c2ccc(Cl)cc2)CN(C(=O)C(Cl)Cl)C/C1=C\c1ccc(Cl)cc1,0.183,0.371,0.182,0.345,0.194,0.396,0.199,0.686,30.2,0.169,1.18,3.07,0.231,0.58,0.203,0.541,1.01 µM,1.32,249,0.283
COc1cc(-c2nc3ccccc3s2)ccc1OCc1nc2n(n1)S(=O)(=O)c1ccccc1N2C,> 100,> 100,> 100,> 100,> 100,> 100,> 100,> 100,–,–,> 100,> 100,> 100,> 100,> 100,> 100,> 100 µM,> 100,43900,> 100
Cn1cnc2c(NCc3ccccc3)nc(NCCO)nc21,105,> 435,115,356,114,313,41.4,283,81200,> 339,44.4,178,96.4,220,–,–,> 90.2 µM and 375 µM,339,138000,110
Nc1nccc(Nc2ccc(S(N)(=O)=O)cc2)n1,–,> 100,–,> 100,–,> 100,–,> 100,–,> 100,–,> 100,–,> 100,–,> 100,> 100 µM,> 100,–,–
C[C@]12CCC(=O)C=C1CC[C@@H]1[C@@H]2CC[C@]2(C)C(=O)/C(=C/c3cccc(OCCN4CCOCC4)c3)C[C@@H]12,12.8,> 100,–,–,4.92,21.8,3.15,29.2,–,–,16.1,34.4,4.17,15.7,16.7,63.6,31.7 µM,> 100,10200,3.01
COC1CC2CCC(C)[C@](O)(O2)C(=O)C(=O)N2CCCCC2C(=O)OC(C(C)CC2CCC(O)C(OC)C2)CC(=O)C(C)C=C(C)C(OC(=O)CN(C)C)C(OC)C(=O)C(C)CC(C)/C=C/C=C/C=C\1C (some centres undefined),–,24.7,–,–,–,19.2,–,21.2,–,–,–,15.1,–,19.8,–,18.7,21.6 µM,–,–,–
O=C(Nc1ccc(Br)c(Cl)c1)c1cc(F)ccc1O,1.06,5.73,1.63,> 22,1.01,> 15.8,1.25,> 14.8,231,1.02,0.558,2.08,0.358,1.05,0.533,8.91,0.755 µM,> 50,121,0.974
CN1CCN(Cc2ccc(NC(=O)c3cncc(C#Cc4c(N)ncc5cc(F)ccc45)c3)cc2C(F)(F)F)CC1,0.892,1.63,2.04,11.1,0.532,1.15,0.747,1.53,1090,2.83,1.44,6.14,0.794,1.52,1.39,3.84,2.03 µM,1.38,200,0.489
CCCC(=O)NNc1[nH]c(-c2ccc(OC)cc2)cc1C(=O)OCC,20.1,34.9,–,–,15.6,31.6,19.4,41.4,16800,86.2,4.59,8.48,18.5,33.2,17.1,30.9,35.5 µM,32.3,18600,17.1
Cc1cc(C)nc(SC2=C(Nc3cccc(Cl)c3)C(=O)N(Cc3ccccc3)C2=O)n1,> 170,> 170,> 170,> 170,> 170,> 170,> 170,> 170,> 170000,> 170,> 170,> 170,> 170,> 170,–,–,> 170 µM,> 170,> 170000,> 170
C/C(=C\c1c[nH]c2ccccc12)[N+](=O)[O-],4.27,15.5,10.5,23,5.56,20.1,4.07,15.4,1810,4.17,6.24,20.8,5.8,19.2,3.53,14.4,–,21,–,7.58
CC[C@H](C)C(=O)O[C@H]1CCC=C2C=C[C@H](C)C(CCC3C[C@@H](O)CC(=O)O3)[C@H]21 (some centres undefined),8.71,> 100,33,> 100,39.3,> 100,1.48,> 100,–,–,6.98,> 100,3.78,71.4,3.5,> 100,5.59 µM,> 100,236,22.7
O=C(/C=C\Sc1nccc(C(F)(F)F)n1)c1ccc(Br)cc1,16.3,34.2,12.5,32.6,26.2,78,15.4,29.4,2240,4.63,> 100,> 100,37.9,> 100,18.8,43.1,–,45.8,–,20.4
